{"source": "patent US9119396B2", "about": "“Method for promoting plant growth” (SUMITOMO CHEMICAL COMPANY, LIMITED, priority 2011, dated 2015)", "type_in_all_cases": "in vivo", "key": {"Wheat (cultivar: Apogee)": {"system": "Wheat (cultivar: Apogee)", "experiment": "Test Example 7: reduction of high-temperature stress by spraying treatment of wheat", "details": "spray solution 100 ppm, high-temperature stress 36° C./32° C. 7 days, 60 days after sowing", "description": "Evaluation Test for Reduction of High-Temperature Stress by Spraying Treatment of Wheat\nFive wheat seeds were sown in the culture soil (AISAI) in each plastic pot and cultivated for 28 days in an artificial weather control room under the conditions of a temperature of 18° C. in daytime/15° C. in night, and an illuminance of 7,000 lux. Before the stress test, 3 individuals per pot were removed.\nTo 0.5 mg of the present compound 1 were added 120 mg of a mixture (weight ratio 1:1) of white carbon and ammonium polyoxyethylene alkyl ether sulfate and 300 μl of water. The mixture was finely ground by a wet grinding method to obtain a flowable formulation of the present compound 1. This flowable formulation was diluted with […] of water. The mixture was diluted with RINO (manufactured by NIHON NOHYAKU CO., LTD) as a spreading agent to 5,000-fold dilution to obtain a spray solution containing 100 ppm of the present compound 1. […]\nAfter the high-temperature stress treatment, the plants were cultivated in an artificial weather control room under the conditions of a temperature of 18° C. in daytime/15° C. in night, and a illuminance of 7,000 lux. Then, 60 days after the sowing, the fresh weight of seeds in ears of the tested plants in 7 or 8 pots were measured, and the average values of the weight of seeds of ears per one pot (3 individuals) were calculated. […]"}, "[1]": {"system": "Rice (cultivar: Nipponbare)", "experiment": "Test Example 1: promotion of root growth in hydroponics of rice", "details": "1 ppm, 3 days germination + 3 days cultivation, average of 4 or 5 individuals", "description": "Evaluation Test for Promotion of Root Growth in Hydroponics of Rice Rice (cultivar: Nipponbare) A 1/10,000 volume of each DMSO solution containing each of the present compounds 1 to 4 at 10,000 ppm was added to a Hoagland solution for hydroponics (Hoagland and Amon, California Agricultural Experiment Station 1950 Circular 347 pp. 34) at ¼ concentration to obtain a solution for hydroponics containing each of the present compounds 1 to 4 at 1 ppm. These solutions were used in the treated-group. In a non-treated group, a solution for hydroponics obtained by adding a Hoagland solution for hydroponics at ¼ concentration to a 1/10,000 volume of DMSO was used. The rice seeds were immersed in an aqueous solution of 1% sodium hypochlorite for 10 minutes, followed by 70% ethanol solution to sterilize their surfaces. After that, the seeds were washed with distilled water. The sterilized seeds were immersed in each solution for hydroponics containing the test compound at 1 ppm, and incubated at a temperature of 28° C. for 3 days under dark conditions to stimulate the germination of the seeds. Then, 30 ml of each solution for hydroponics containing the test compound at 1 ppm was dispensed into a plastic tube (20 mm in diameter×113 mm in height) covered with a cardboard on the lateral surface for blocking a light. A float made of a styrene board and a vinyl mesh was placed on the water surface of each solution for hydroponics, and the rice seeds obtained after the stimulation of germination were placed on the float. The seeds were cultivated for 3 days under the conditions of an illuminance of 4,000 lux at the top of the tube, a temperature of 26° C., a humidity of 50%, and a day length of 16 hours. The root length of the rice seedlings obtained after the cultivation was measured by using WinRHIZO system (manufactured by REGENT INSTRUMENTS). The average value of the root length in the treated group was calculated from the measurement values of 4 or 5 individuals. As a result, the root length in the treated group, wherein the plants were treated with the present compound 1, 2, 3 or 4 (at a concentration of 1 ppm in each case), was much longer than that in the non-treated group."}, "[2]": {"system": "Rice (cultivar: Nipponbare)", "experiment": "Test Example 11: reduction of drought stress by treatment of rice seeds", "details": "rice seed treatment, 100 g per 100 kg of seeds; drought stress 2 days, then 14 days cultivation", "description": "Evaluation Test for Reduction of Drought Stress by Treatment of Rice Seeds Rice (cultivar: Nipponbare) A blank slurry solution containing 5% (V/V) color coat red (Becker Underwood, Inc.), 5% (V/V) CF-Clear (Becker Underwood, Inc.) and 1% Maxim XL (Syngenta) was prepared. A slurry solution was prepared by dissolving the present compound 1 in the blank slurry solution such that 100 g of the compound is applied to each 100 kg of rice seeds. In a 50-ml centrifuge tube (manufactured by AGC TECHNO GLASS CO., LTD.), 0.3 ml of the slurry solution was placed for each 10 g of rice seeds and stirred until the solution was dried, thereby coating the seeds. In addition, seeds were coated with the blank slurry solution and used as seeds for a non-treated group. A filter paper was placed on the holes of a plug tray having 406 holes, and the rice seeds treated above were sown on the filter paper. […] Fourteen (14) days after the treatment, the fresh weight of the overground parts of five test plants in each treated group was measured. The experiment was performed in three replications in each treated group and the average value was calculated. […]"}}}
{"smiles": "COC(=O)c1cc2cc(C(F)(F)F)ccc2s1", "note": "[compound 1]", "values": [{"measurement": "fresh weight of seeds of ears vs non-treated group", "setting": "Wheat (cultivar: Apogee)", "result": "much larger"}, {"measurement": "root length of the rice seedlings vs non-treated group", "setting": "[1]", "result": "much longer"}, {"measurement": "fresh weight of the overground part of plants vs non-treated group", "setting": "[2]", "result": "much heavier"}]}
